Measurements taken from patent US11649218B2, “C-Abl tyrosine kinase inhibitory compound embodiments and methods of making and using the same” (The USA, as represented by the Secretary, Dept. of Health …, priority 2018, dated 2023).

What was measured:
[1] = Pharmacokinetic profile in plasma; format: in vivo, mice; conditions: 12.5 mg/kg IP
[2] = Pharmacokinetic profile in brain; format: in vivo, mice; conditions: 12.5 mg/kg IP
Leukemia K562 cell = Leukemia K562 cell proliferation/viability assay (CellTiterGlo, 48 hours); format: cell-based; parameters: unit not given here; conditions: K562 cells
Protocol: C-Abl is encoded by the ABL1 gene (NCBI Gene ID NO. 25). […] Assays for determining if a small molecule inhibits c-Abl activity are known. Non-limiting examples include cell proliferation assays using cancer cells that are BCR-Abl positive and depend on BCR-Abl for growth, such as the leukemia cell line K562. […] In some embodiments described herein, compounds are tested for ability to reduce K562 cell proliferation in an HTS adapted assay which measures cell viability using the reagent CellTiterGlo after 48 hours treatment.

[3] = test system: P. falciparum strain NF54 asexual parasites; assay: Asexual stage parasite growth inhibition, SYBR Green assay, 72 hours; format: cell-based; conditions: NF54, 72 hours; for IC50: Plasmodium falciparum
Protocol: In this example, several of the c-Abl inhibitors were tested in the asexual […] strain of P. falciparum parasites for activity against malaria. […] The pre-diluted parasites were dispensed into a 1536-well plate (2.5 μL/well). […] The fluorescence of each well was measured at 520 nm following excitation at 490 nm using a ViewLux platereader (PerkinElmer).

SMILES | Efficacy (Leukemia K562 cell) | also measured
O=C(Nc1ccc(OC(F)(F)Cl)cc1)c1cnc(N2CC[C@@H](O)C2)c(-c2ccn[nH]2)c1 [ABL001] | – | Plasma concentration ([1]; Time 0.167): 5.454 µM; Plasma concentration ([1]; Time 0.5): 9.137 µM; Plasma concentration ([1]; Time 1): 11.174 µM; Plasma concentration ([1]; Time 1.5): 10.189 µM; Plasma concentration ([1]; Time 2): 5.483 µM; Plasma concentration ([1]; Time 4): 1.628 µM; Plasma concentration ([1]; Time 7): 0.399 µM; Plasma concentration ([1]; Time 24): 0.007 µM; Brain concentration ([2]; Time 0.167): 0.330 µmol/kg; Brain concentration ([2]; Time 0.5): 0.534 µmol/kg; Brain concentration ([2]; Time 1): 0.597 µmol/kg; Brain concentration ([2]; Time 1.5): 0.442 µmol/kg; Brain concentration ([2]; Time 2): 0.336 µmol/kg; Brain concentration ([2]; Time 4): 0.119 µmol/kg; Brain concentration ([2]; Time 7): 0.056 µmol/kg; Brain concentration ([2]; Time 24): 0.003 µmol/kg
O=C1Nc2cc(OC(F)(F)F)ccc2Oc2ccc(-c3cncnc3)cc21 [NCGC00371310, 2-(Pyrimidin-5-yl)-8-(trifluoromethoxy)dibenzo[b,f][1,4]oxazepin-11(10H)-one] | −15.0 | –
O=C1Nc2cc(OC(F)(F)F)ccc2Oc2ccc(-c3cccc(C(=O)N4CCOCC4)c3)cc21 [NCGC00356745, 2-(3-(Morpholine-4-carbonyl)phenyl)-8-(trifluoromethoxy)dibenzo[b,f][1,4]oxazepin-11(10H)-one] | −98.3 | –
O=C1Nc2cc(OCCC(F)(F)F)ccc2Oc2ccc(-c3ccnc(N4CCOCC4)c3)cc21 [NCGC00481507, 2-(2-Morpholinopyridin-4-yl)-8-(3,3,3-trifluoropropoxy)dibenzo[b,f][1,4]oxazepin-11(10H)-one] | −85.5 | –
CN1CCN(C(=O)c2cccc(-c3ccc4c(c3)C(=O)Nc3cc(OC(F)(F)F)ccc3O4)c2)CC1 [NCGC00356690, 2-(3-(4-Methylpiperazine-1-carbonyl)phenyl)-8-(trifluoromethoxy)dibenzo[b,f][1,4]oxazepin-11(10H)-one] | −121.9 | –
O=C1Nc2cc(OC(F)(F)F)ccc2[S+]([O-])c2ccc(-c3ccnc(N4CCOCC4)c3)cc21 (stereo not shown) [NCGC00482446, 2-(2-Morpholinopyridin-4-yl)-8-(trifluoromethoxy)dibenzo[b,f][1,4]thiazepin-11(10H)-one 5-oxide] | −83.3 | –
NCc1ccc(-c2ccc3c(c2)C(=O)Nc2cc(OC(F)(F)F)ccc2O3)s1 [NCGC00388547, 2-(5-(Aminomethyl)thiophen-2-yl)-8-(trifluoromethoxy)dibenzo[b,f][1,4]oxazepin-11(10H)-one] | −91.7 | –
O=C1Nc2cc(OC(F)(F)F)ccc2Oc2ccc(-c3cccc(-c4ccn[nH]4)c3)cc21 [NCGC00411874, 2-(3-(1H-Pyrazol-5-yl)phenyl)-8-(trifluoromethoxy)dibenzo[b,f][1,4]oxazepin-11(10H)-one] | −84.3 | –
O=C1Nc2cc(OC(F)(F)F)ccc2S(=O)(=O)c2ccc(-c3ccnc(N4CCOCC4)c3)cc21 [NCGC00483140, 2-(2-Morpholinopyridin-4-yl)-8-(trifluoromethoxy)dibenzo[b,f][1,4]thiazepin-11(10H)-one 5,5-dioxide] | −87.2 | –
CS(=O)(=O)Nc1cccc(-c2ccc3c(c2)C(=O)Nc2cc(OC(F)(F)F)ccc2O3)c1 [NCGC00356665, N-(3-(11-Oxo-8-(trifluoromethoxy)-10,11-dihydrodibenzo[b,f][1,4]oxazepin-2-yl)phenyl)methanesulfonamide] | −83.8 | –
CN1C(=O)c2cc(-c3cccc(N(C)S(C)(=O)=O)c3)ccc2Oc2ccc(OC(F)(F)F)cc21 [NCGC00384286, N-Methyl-N-(3-(10-methyl-11-oxo-8-(trifluoromethoxy)-10,11-dihydrodibenzo[b,f][1,4]oxazepin-2-yl)phenyl)methanesulfonamide] | −54.6 | –
O=C1Nc2cc(OCC(F)(F)F)ccc2Oc2ccc(-c3ccnc(N4CCOCC4)c3)cc21 [NCGC00481504, 2-(2-Morpholinopyridin-4-yl)-8-(2,2,2-trifluoroethoxy)dibenzo[b,f][1,4]oxazepin-11(10H)-one] | −85.1 | –
CC(=O)NCc1ccc(-c2ccc3c(c2)C(=O)Nc2cc(OC(F)(F)F)ccc2O3)s1 [NCGC00388557, N-((5-(11-Oxo-8-(trifluoromethoxy)-10,11-dihydrodibenzo[b,f][1,4]oxazepin-2-yl)thiophen-2-yl)methyl)acetamide] | −81.9 | –
N#CCCn1cc(-c2ccc3c(c2)C(=O)Nc2cc(OC(F)(F)F)ccc2O3)cn1 [NCGC00387293, 3-(4-(11-Oxo-8-(trifluoromethoxy)-10,11-dihydrodibenzo[b,f][1,4]oxazepin-2-yl)-1H-pyrazol-1-yl)propanenitrile] | −84.4 | –
NC(=O)c1cccc(-c2ccc3c(c2)C(=O)Nc2cc(OC(F)(F)F)ccc2N3)c1 [NCGC00354777, 3-(11-Oxo-8-(trifluoromethoxy)-10,11-dihydro-5H-dibenzo[b,e][1,4]diazepin-2-yl)benzamide] | −95.9 | –
O=C1Nc2cc(OC(F)(F)F)ccc2Oc2ccc(-c3cccnc3)cc21 [NCGC00371308, 2-(Pyridin-3-yl)-8-(trifluoromethoxy)dibenzo[b,f][1,4]oxazepin-11(10H)-one] | −7.0 | –

SMILES | Efficacy (Leukemia K562 cell) | also measured
NC(=O)Cn1cc(-c2ccc3c(c2)C(=O)Nc2cc(OC(F)(F)F)ccc2O3)cn1 [NCGC00387404, 2-(4-(11-Oxo-8-(trifluoromethoxy)-10,11-dihydrodibenzo[b,f][1,4]oxazepin-2-yl)-11-pyrazol-1-yl)acetamide] | −8.8 | –
Nc1cc(-c2ccc3c(c2)C(=O)Nc2cc(OC(F)(F)F)ccc2O3)ccn1 [NCGC00373061, 2-(2-Aminopyridin-4-yl)-8-(trifluoromethoxy)dibenzo[b,f][1,4]oxazepin-11(10H)-one] | −87.0 | –
NCCNC(=O)c1cccc(-c2ccc3c(c2)C(=O)Nc2cc(OC(F)(F)F)ccc2N3)c1 [NCGC00355568, N-(2-Aminoethyl)-3-(11-oxo-8-(trifluoromethoxy)-10,11-dihydro-5H-dibenzo[b,e][1,4]diazepin-2-yl)benzamide] | −81.4 | –
O=C1Nc2cc(OC(F)(F)F)ccc2Oc2ccc(-c3cccc(S(=O)(=O)NCCO)c3)cc21 [NCGC00373064, N-(2-Hydroxyethyl)-3-(11-oxo-8-(trifluoromethoxy)-10,11-dihydrodibenzo[b,f][1,4]oxazepin-2-yl)benzenesulfonamide] | −103.3 | –
O=C1Nc2cc(OC(F)(F)F)ccc2Oc2ccc(-c3ccc(CN4CCOCC4)s3)cc21 [NCGC00388536, 2-(5-(Morpholinomethyl)thiophen-2-yl)-8-(trifluoromethoxy)dibenzo[b,f][1,4]oxazepin-11(10H)-one] | −83.1 | –
N#Cc1ccc2c(c1)NC(=O)c1cc(-c3ccnc(N4CCOCC4)c3)ccc1O2 [NCGC00481503, 2-(2-Morpholinopyridin-4-yl)-11-oxo-10,11-dihydrodibenzo[b,f][1,4]oxazepine-8-carbonitrile] | −80.5 | –
O=C1Nc2cc(OC(F)(F)F)ccc2Oc2ccc(-c3ccnc(N4CCOCC4)c3)cc21 [NCGC00411866, 2-(2-Morpholinopyridin-4-yl)-8-(trifluoromethoxy)dibenzo[b,f][1,4]oxazepin-11(10H)-one] | – | % Killing [3]: 92.9%; IC50 [3]: 9.69 µM
NC(=O)c1cccc(-c2cc(Nc3ccc(OC(F)(F)F)cc3)ncn2)c1 [GNF-2] | −85.2 | % Killing [3]: 86.0%; IC50 [3]: 1.4 µM
O=C(NCCN1CCOCC1)c1cccc(-c2ccc3c(c2)C(=O)Nc2cc(OC(F)(F)F)ccc2N3)c1 [NCGC00355557, N-(2-Morpholinoethyl)-3-(11-oxo-8-(trifluoromethoxy)-10,11-dihydro-5H-dibenzo[b,e][1,4]diazepin-2-yl)benzamide] | −91.1 | –
CN1C(=O)c2ccc(-c3cccc(N(C)S(C)(=O)=O)c3)cc2Oc2ccc(OC(F)(F)F)cc21 [NCGC00384267] | −48.4 | –
O=C1Nc2cc(OC(F)(F)F)ccc2Oc2ccc(-c3cnn(C4COC4)c3)cc21 [NCGC00387298, 2-(1-(Oxetan-3-yl)-1H-pyrazol-4-yl)-8-(trifluoromethoxy)dibenzo[b,f][1,4]oxazepin-11(10H)-one] | −93.8 | –
O=C1Nc2cc(OC(F)(F)F)ccc2Oc2ccc(-c3cnn(CCO)c3)cc21 [NCGC00387403, 2-(1-(2-Hydroxyethyl)-1H-pyrazol-4-yl)-8-(trifluoromethoxy)dibenzo[b,f][1,4]oxazepin-11(10H)-one] | −37.6 | –
O=C1Nc2cc(OC(F)(F)F)ccc2Oc2ccc(-c3cccc(CO)c3)cc21 [NCGC00415061, 2-(3-(Hydroxymethyl)phenyl)-8-(trifluoromethoxy)dibenzo[b,f][1,4]oxazepin-11(10H)-one] | −71.4 | –
CS(=O)(=O)Nc1ccc(-c2ccc3c(c2)C(=O)Nc2cc(OC(F)(F)F)ccc2N3)cc1 [NCGC00355552, N-(4-(11-oxo-8-(trifluoromethoxy)-10,11-dihydro-5H-dibenzo[b,e][1,4]diazepin-2-yl)phenyl)methanesulfonamide] | −86.3 | –
CS(=O)(=O)Nc1cccc(-c2ccc3c(c2)C(N)=Nc2cc(OC(F)(F)F)ccc2O3)c1 [NCGC00373124, N-(3-(11-Amino-8-(trifluoromethoxy)dibenzo[b,f][1,4]oxazepin-2-yl)phenyl)methanesulfonamide] | −87.5 | –
